Assay results: PubChem BioAssay AID1963844 (Molecular Pharmacology Branch, DTP, NCI, 2024)

Tested on: 422866-222-R5-J1-PDC complex spheroid viability
Assay: Anticancer human tumor 422866-222-R5-J1-PDC patient-derived pancreatic adenocarcinoma cell line growth inhibition [POLQ]
Details: for IC50: curve of first compound; for viability, T/C: stronger effect = lower value
Procedure, shortened: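 Patient-derived tumour cells were co-cultured with HUVEC and mesenchymal stem cells as multicellular spheroids at 37 °C. They were treated with POLQ inhibitors (novobiocin, ART-558, RP6685) alone or combined with other agents. Top concentrations were at or near clinical Cmax (otherwise 10 microM; SN-38 at 1 microM), decreasing in half-log steps.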
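Further: spheroids exposed to compounds for one week before readout.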
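Wherever viability, T/C is given: percent of DMSO vehicle wells luminescence so 100% = untreated viability.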

`C=CCn1c(=O)c2cnc(Nc3ccc(N4CCN(C)CC4)cc3)nc2n1-c1cccc(C(C)(C)O)n1` + Nc1ccc(C#CCN(C(=O)Cc2ncc(C(F)(F)F)cc2C(F)(F)F)c2ccc(F)cc2)nn1 showed an IC50 (second compound 0.0316 µM) of 290 nM, an IC50 (second compound 0.1 µM) of 270 nM and an IC50 (second compound 0.316 µM) of 252 nM. It also gave an IC50 (second compound 1 µM) of 311 nM, an IC50 (second compound 3.16 µM) of 251 nM and an IC50 (second compound 10 µM) of 257 nM. It also gave a viability, T/C (second compound 0.0316 µM, first compound 0.00316 µM) of 88%, a viability, T/C (second compound 0.0316 µM, first compound 0.01 µM) of 96.6% and a viability, T/C (second compound 0.0316 µM, first compound 0.0316 µM) of 92.1%. It also gave a viability, T/C (second compound 0.0316 µM, first compound 0.1 µM) of 79.7%, a viability, T/C (second compound 0.0316 µM, first compound 0.316 µM) of 47.8% and a viability, T/C (second compound 0.0316 µM, first compound 1 µM) of 33.7%. For the same compound, the viability, T/C (second compound 0.1 µM, first compound 0.00316 µM) was 98%, the viability, T/C (second compound 0.1 µM, first compound 0.01 µM) was 102% and the viability, T/C (second compound 0.1 µM, first compound 0.0316 µM) was 98.2%. It also gave a viability, T/C (second compound 0.1 µM, first compound 0.1 µM) of 80.8%, a viability, T/C (second compound 0.1 µM, first compound 0.316 µM) of 45.2% and a viability, T/C (second compound 0.1 µM, first compound 1 µM) of 32.8%. The viability, T/C (second compound 0.316 µM, first compound 0.00316 µM) was 97%, the viability, T/C (second compound 0.316 µM, first compound 0.01 µM) was 89.7% and the viability, T/C (second compound 0.316 µM, first compound 0.0316 µM) was 99.7%. For the same compound, the viability, T/C (second compound 0.316 µM, first compound 0.1 µM) was 71.9%, the viability, T/C (second compound 0.316 µM, first compound 0.316 µM) was 46.5% and the viability, T/C (second compound 0.316 µM, first compound 1 µM) was 34.6%. For the same compound, the viability, T/C (second compound 1 µM, first compound 0.00316 µM) was 97.6%, the viability, T/C (second compound 1 µM, first compound 0.01 µM) was 91.4% and the viability, T/C (second compound 1 µM, first compound 0.0316 µM) was 115%. For the same compound, the viability, T/C (second compound 1 µM, first compound 0.1 µM) was 76.2%, the viability, T/C (second compound 1 µM, first compound 0.316 µM) was 53.5% and the viability, T/C (second compound 1 µM, first compound 1 µM) was 34.3%. The viability, T/C (second compound 3.16 µM, first compound 0.00316 µM) was 78.1%, the viability, T/C (second compound 3.16 µM, first compound 0.01 µM) was 97.1% and the viability, T/C (second compound 3.16 µM, first compound 0.0316 µM) was 128%. The viability, T/C (second compound 3.16 µM, first compound 0.1 µM) was 69.5%, the viability, T/C (second compound 3.16 µM, first compound 0.316 µM) was 53.6% and the viability, T/C (second compound 3.16 µM, first compound 1 µM) was 36.6%. The viability, T/C (second compound 10 µM, first compound 0.00316 µM) was 106%, the viability, T/C (second compound 10 µM, first compound 0.01 µM) was 104% and the viability, T/C (second compound 10 µM, first compound 0.0316 µM) was 103%. The viability, T/C (second compound 10 µM, first compound 0.1 µM) was 78.7%, the viability, T/C (second compound 10 µM, first compound 0.316 µM) was 44% and the viability, T/C (second compound 10 µM, first compound 1 µM) was 35.7%.
